The test relates to MV-4-11 cells. Briefly: Gene expression microarray analysis (Affymetrix PrimeView) and GSEA. The test is classed as cell-based, human. The arrangement: RFU PODN (11730768_x_at) / Fold change /veh PODN (11730768_x_at) / RFU LINC00158 (11744669_a_at) / Fold change /veh LINC00158 (11744669_a_at) / RFU DUSP10 (11751237_a_at) / Fold change /veh DUSP10 (11751237_a_at) / RFU ID3 (11757404_x_at) / Fold change /veh ID3 (11757404_x_at) / RFU PLEKHG5 (11737974_s_at) / Fold change /veh PLEKHG5 (11737974_s_at) / RFU LRRC4B (11730491_at) / Fold change /veh LRRC4B (11730491_at) / RFU GIMAP4 (11747438_a_at) / Fold change /veh GIMAP4 (11747438_a_at) / RFU KRT8 (11758183_x_at) / Fold change /veh KRT8 (11758183_x_at) / RFU CNN1 (11734310_a_at) / Fold change /veh CNN1 (11734310_a_at) / RFU VPS37D (11726825_at) / Fold change /veh VPS37D (11726825_at) / RFU C10orf10 (11716522_x_at) / Fold change /veh C10orf10 (11716522_x_at) / RFU KIR2DL2 /// KIR2DL4 /// KIR2DL5A /// KIR2DL5B /// KIR2DS1 /// KIR2DS2 /// KIR2DS3 /// KIR2DS4 /// KIR3DL3 /// KIR3DL3 /// KIR3DS1 (11738374_at) / Fold change /veh KIR2DL2 /// KIR2DL4 /// KIR2DL5A /// KIR2DL5B /// KIR2DS1 /// KIR2DS2 /// KIR2DS3 /// KIR2DS4 /// KIR3DL3 /// KIR3DL3 /// KIR3DS1 (11738374_at) / RFU C1QL1 (11718748_at) / Fold change /veh C1QL1 (11718748_at) / RFU TMPRSS4 (11747572_a_at) / Fold change /veh TMPRSS4 (11747572_a_at) / RFU HAMP (11756126_x_at) / Fold change /veh HAMP (11756126_x_at) / RFU RNFT2 (11725882_a_at) / Fold change /veh RNFT2 (11725882_a_at) / RFU NR4A2 (11747474_a_at) / Fold change /veh NR4A2 (11747474_a_at) / RFU ABCC12 (11746883_a_at) / Fold change /veh ABCC12 (11746883_a_at) / RFU TMEM136 (11760407_x_at) / Fold change /veh TMEM136 (11760407_x_at) / RFU CLDN22 /// WWC2 (11732394_at) / Fold change /veh CLDN22 /// WWC2 (11732394_at) / RFU HLA-DPB1 (11760878_x_at) / Fold change /veh HLA-DPB1 (11760878_x_at) / RFU SPINT1 (11716480_a_at) / Fold change /veh SPINT1 (11716480_a_at) / RFU GAP43 (11754022_s_at) / Fold change /veh GAP43 (11754022_s_at) / RFU A4GNT (11735810_at) / Fold change /veh A4GNT (11735810_at) / RFU PRB3 (11715151_x_at) / Fold change /veh PRB3 (11715151_x_at) / RFU TUBB4B (11761932_at) / Fold change /veh TUBB4B (11761932_at) / RFU CAPN14 (11732068_a_at) / Fold change /veh CAPN14 (11732068_a_at) / RFU TMCC2 (11721928_a_at) / Fold change /veh TMCC2 (11721928_a_at) / RFU IRGQ (11745062_a_at) / Fold change /veh IRGQ (11745062_a_at) / RFU FAM174B (11720279_a_at) / Fold change /veh FAM174B (11720279_a_at) / RFU TMPRSS4 (11748680_a_at) / Fold change /veh TMPRSS4 (11748680_a_at) / RFU FAM212B (11763350_a_at) / Fold change /veh FAM212B (11763350_a_at) / RFU PLEKHG5 (11743358_a_at) / Fold change /veh PLEKHG5 (11743358_a_at) / RFU ZSCAN30 (11745921_a_at) / Fold change /veh ZSCAN30 (11745921_a_at) / RFU CMKLR1 (11741424_a_at) / Fold change /veh CMKLR1 (11741424_a_at) / RFU LOC101060620 /// MAPK8IP1 (11723275_at) / Fold change /veh LOC101060620 /// MAPK8IP1 (11723275_at) / RFU SPTSSB (11747773_x_at) / Fold change /veh SPTSSB (11747773_x_at) / RFU PRSS12 (11739890_at) / Fold change /veh PRSS12 (11739890_at) / RFU BIN1 (11741810_x_at) / Fold change /veh BIN1 (11741810_x_at) / RFU WNT11 (11732464_a_at) / Fold change /veh WNT11 (11732464_a_at) / RFU C10orf10 (11716521_a_at) / Fold change /veh C10orf10 (11716521_a_at) / RFU C5orf56 (11738089_at) / Fold change /veh C5orf56 (11738089_at) / RFU CYB561 (11721691_x_at) / Fold change /veh CYB561 (11721691_x_at) / RFU ANKRD19P (11752326_a_at) / Fold change /veh ANKRD19P (11752326_a_at) / RFU OR2T12 /// OR2T33 /// OR2T8 (11738714_s_at) / Fold change /veh OR2T12 /// OR2T33 /// OR2T8 (11738714_s_at) / RFU VCAN (11748164_a_at) / Fold change /veh VCAN (11748164_a_at) / RFU JSRP1 (11732532_at) / Fold change /veh JSRP1 (11732532_at) / RFU KRTAP10-11 (11738290_x_at) / Fold change /veh KRTAP10-11 (11738290_x_at) / RFU MYO3A (11730013_a_at) / Fold change /veh MYO3A (11730013_a_at) / RFU EBF3 (11725865_a_at) / Fold change /veh EBF3 (11725865_a_at) / RFU CAMK2N1 (11719241_x_at) / Fold change /veh CAMK2N1 (11719241_x_at) / RFU C5orf56 (11738088_a_at) / Fold change /veh C5orf56 (11738088_a_at) / RFU OLFML3 (11715873_a_at) / Fold change /veh OLFML3 (11715873_a_at) / RFU LOC100653217 /// NTM (11731650_a_at) / Fold change /veh LOC100653217 /// NTM (11731650_a_at) / RFU MAPK11 (11762145_a_at) / Fold change /veh MAPK11 (11762145_a_at) / RFU FIZ1 (11724087_x_at) / Fold change /veh FIZ1 (11724087_x_at) / RFU OASL (11726364_x_at) / Fold change /veh OASL (11726364_x_at) / RFU SOX15 (11748057_x_at) / Fold change /veh SOX15 (11748057_x_at) / RFU CD79A (11719716_a_at) / Fold change /veh CD79A (11719716_a_at) / RFU HIST1H1D (11736915_at) / Fold change /veh HIST1H1D (11736915_at) / RFU CASKIN2 (11723855_a_at) / Fold change /veh CASKIN2 (11723855_a_at) / RFU LOC730098 (11760151_x_at) / Fold change /veh LOC730098 (11760151_x_at) / RFU OR4N2 (11742367_at) / Fold change /veh OR4N2 (11742367_at) / RFU PRRT2 (11749266_a_at) / Fold change /veh PRRT2 (11749266_a_at) / RFU SNX32 (11753110_a_at) / Fold change /veh SNX32 (11753110_a_at) / RFU CDHR5 (11726645_a_at) / Fold change /veh CDHR5 (11726645_a_at) / RFU RCAN1 (11760418_a_at) / Fold change /veh RCAN1 (11760418_a_at) / RFU FAM167A (11723789_a_at) / Fold change /veh FAM167A (11723789_a_at) / RFU FAM26E (11764081_at) / Fold change /veh FAM26E (11764081_at) / RFU ISYNA1 (11749810_s_at) / Fold change /veh ISYNA1 (11749810_s_at) / RFU ACY1 (11761880_at) / Fold change /veh ACY1 (11761880_at) / RFU 11764098_at / Fold change /veh 11764098_at / RFU SAMD14 (11745864_x_at) / Fold change /veh SAMD14 (11745864_x_at) / RFU NPB (11741838_a_at) / Fold change /veh NPB (11741838_a_at) / RFU TMPRSS6 (11731388_a_at) / Fold change /veh TMPRSS6 (11731388_a_at) / RFU KRTAP10-2 (11738614_at) / Fold change /veh KRTAP10-2 (11738614_at) / RFU ARHGAP8 /// PRR5-ARHGAP8 (11727945_x_at) / Fold change /veh ARHGAP8 /// PRR5-ARHGAP8 (11727945_x_at) / RFU KRTAP5-7 /// NADSYN1 (11734609_at) / Fold change /veh KRTAP5-7 /// NADSYN1 (11734609_at) / RFU RASL12 (11751679_a_at) / Fold change /veh RASL12 (11751679_a_at) / RFU CDKN2B (11736163_a_at) / Fold change /veh CDKN2B (11736163_a_at) / RFU PRF1 (11729649_at) / Fold change /veh PRF1 (11729649_at) / RFU, ZNF638 /// ZNF638-IT1 / Fold change vs veh, ZNF638 /// ZNF638-IT1 / RFU, PANK3 / Fold change vs veh, PANK3 / RFU, SH3YL1 / Fold change vs veh, SH3YL1 / RFU, ZEB2 / Fold change vs veh, ZEB2 / RFU, NRIP1 / Fold change vs veh, NRIP1 / RFU, PTTG1IP / Fold change vs veh, PTTG1IP / RFU, CAPN2 / Fold change vs veh, CAPN2 / RFU, MED14 / Fold change vs veh, MED14 / RFU, SNORA58 / Fold change vs veh, SNORA58 / RFU, C1orf63 / Fold change vs veh, C1orf63 / RFU, LRRFIP1 / Fold change vs veh, LRRFIP1 / RFU, NDUFAF7 / Fold change vs veh, NDUFAF7 / RFU, SLC12A2 / Fold change vs veh, SLC12A2 / RFU, IBTK / Fold change vs veh, IBTK / RFU, ESF1 / Fold change vs veh, ESF1 / Fold change vs veh, TMEM50B / RFU, TAOK1 / Fold change vs veh, TAOK1 / RFU, ACBD3 / Fold change vs veh, ACBD3 / RFU, TMA16 / Fold change vs veh, TMA16 / RFU, RWDD3 / Fold change vs veh, RWDD3 / RFU, BCAT1 / Fold change vs veh, BCAT1 / RFU, EDEM3 / Fold change vs veh, EDEM3 / RFU, TMEM33 / Fold change vs veh, TMEM33 / RFU, WDR75 / Fold change vs veh, WDR75 / RFU, AHCTF1 / Fold change vs veh, AHCTF1 / RFU, TFRC / Fold change vs veh, TFRC / RFU, ZDHHC17 / Fold change vs veh, ZDHHC17 / RFU, NOM1 / Fold change vs veh, NOM1 / RFU, ARL8B / Fold change vs veh, ARL8B / RFU, ZBTB11 / Fold change vs veh, ZBTB11 / RFU, TAMM41 / Fold change vs veh, TAMM41 / RFU, KIAA1704 /// LOC100996395 / Fold change vs veh, KIAA1704 /// LOC100996395 / RFU, ING1 / Fold change vs veh, ING1 / RFU, TRMT61B / Fold change vs veh, TRMT61B / RFU, FUBP3 / Fold change vs veh, FUBP3 / RFU, TP53 / Fold change vs veh, TP53 / RFU, TNKS2 / Fold change vs veh, TNKS2 / RFU, ZFP14 / Fold change vs veh, ZFP14 / RFU, ACTR2 / Fold change vs veh, ACTR2 / RFU, PPP3R1 / Fold change vs veh, PPP3R1 / RFU, PIK3R1 / Fold change vs veh, PIK3R1 / RFU, HNRNPA1 / Fold change vs veh, HNRNPA1 / RFU, RNF170 / Fold change vs veh, RNF170 / RFU, ZNF28 / Fold change vs veh, ZNF28 / RFU, RNGTT / Fold change vs veh, RNGTT / RFU, OGT / Fold change vs veh, OGT / RFU, BRD1 / Fold change vs veh, BRD1 / RFU, MARS / Fold change vs veh, MARS / RFU, ZNF655 / Fold change vs veh, ZNF655 / RFU, FAHD1 / Fold change vs veh, FAHD1 / RFU, BDP1 / Fold change vs veh, BDP1 / RFU, LRRCC1 / Fold change vs veh, LRRCC1 / RFU, ARID1A / Fold change vs veh, ARID1A / RFU, ZNF146 / Fold change vs veh, ZNF146 / RFU, ZNF330 / Fold change vs veh, ZNF330 / RFU, GPN3 / Fold change vs veh, GPN3 / RFU, C9orf123 / Fold change vs veh, C9orf123 / RFU, N4BP2L2 / Fold change vs veh, N4BP2L2 / RFU, ARFIP1 / Fold change vs veh, ARFIP1 / RFU, FAM179B / Fold change vs veh, FAM179B / RFU, BCL10 / Fold change vs veh, BCL10 / RFU, UHRF1BP1L / Fold change vs veh, UHRF1BP1L / RFU, BET1 / Fold change vs veh, BET1 / RFU, CNOT2 / Fold change vs veh, CNOT2 / RFU, ZNF268 / Fold change vs veh, ZNF268 / Fold change vs veh, ZNF507 / RFU, DGCR2 / Fold change vs veh, DGCR2 / RFU, WDSUB1 / Fold change vs veh, WDSUB1 / Fold change vs veh, HSP90B1 /// MIR3652 / RFU, ADSS / Fold change vs veh, ADSS / RFU, GK / Fold change vs veh, GK / RFU, ZNF148 / Fold change vs veh, ZNF148 / RFU, TAF9 / Fold change vs veh, TAF9 / RFU, SLC1A5 / Fold change vs veh, SLC1A5 / RFU, SLMO2 / Fold change vs veh, SLMO2 / RFU, ABCC4 / Fold change vs veh, ABCC4 / RFU, LOC101060439 /// RAP1B / Fold change vs veh, LOC101060439 /// RAP1B / RFU, RFX7 / Fold change vs veh, RFX7 / RFU, GTPBP10 / Fold change vs veh, GTPBP10 / RFU, CNEP1R1 / Fold change vs veh, CNEP1R1 / RFU, BIVM-ERCC5 /// ERCC5 / Fold change vs veh, BIVM-ERCC5 /// ERCC5 / RFU, ILF3 / Fold change vs veh, ILF3 / RFU 11762660_at / Fold change /veh 11762660_at / RFU VCAN (11757783_s_at) / Fold change /veh VCAN (11757783_s_at) / RFU DDX43 (11728927_at) / Fold change /veh DDX43 (11728927_at) / RFU KRT8 (11758188_x_at) / Fold change /veh KRT8 (11758188_x_at) / RFU NKD1 (11759106_at) / Fold change /veh NKD1 (11759106_at) / RFU SRD5A1 (11742802_a_at) / Fold change /veh SRD5A1 (11742802_a_at) / RFU TPSAB1 /// TPSB2 (11721975_s_at) / Fold change /veh TPSAB1 /// TPSB2 (11721975_s_at) / RFU GSTM3 (11746129_a_at) / Fold change /veh GSTM3 (11746129_a_at) / RFU IL23R (11737362_x_at) / Fold change /veh IL23R (11737362_x_at) / RFU TMEM51 (11727254_a_at) / Fold change /veh TMEM51 (11727254_a_at) / RFU PIWIL2 (11732686_x_at) / Fold change /veh PIWIL2 (11732686_x_at) / RFU ORM1 (11744905_x_at) / Fold change /veh ORM1 (11744905_x_at) / RFU CCDC152 (11743942_at) / Fold change /veh CCDC152 (11743942_at) / RFU ECM1 (11717891_a_at) / Fold change /veh ECM1 (11717891_a_at) / RFU IL23R (11748794_a_at) / Fold change /veh IL23R (11748794_a_at) / RFU TNFAIP8L3 (11732012_x_at) / Fold change /veh TNFAIP8L3 (11732012_x_at) / RFU MBOAT4 (11741988_at) / Fold change /veh MBOAT4 (11741988_at) / RFU 11764193_at / Fold change /veh 11764193_at / RFU TMEM53 (11763286_at) / Fold change /veh TMEM53 (11763286_at) / RFU MAGEB2 (11727129_at) / Fold change /veh MAGEB2 (11727129_at) / RFU TMEM200A (11744735_a_at) / Fold change /veh TMEM200A (11744735_a_at) / RFU CCDC152 (11751479_a_at) / Fold change /veh CCDC152 (11751479_a_at) / RFU FAM211A (11726209_a_at) / Fold change /veh FAM211A (11726209_a_at) / RFU RGS16 (11746705_a_at) / Fold change /veh RGS16 (11746705_a_at) / RFU VCAN (11755009_s_at) / Fold change /veh VCAN (11755009_s_at) / RFU RHOB (11743442_s_at) / Fold change /veh RHOB (11743442_s_at) / RFU RGS16 (11720943_a_at) / Fold change /veh RGS16 (11720943_a_at) / RFU RGS16 (11720944_at) / Fold change /veh RGS16 (11720944_at) / RFU, VPS4B / Fold change vs veh, VPS4B / RFU, CREB1 / Fold change vs veh, CREB1 / RFU, DNAJC13 / Fold change vs veh, DNAJC13 / RFU, GNAQ / Fold change vs veh, GNAQ / RFU, CDK5R1 / Fold change vs veh, CDK5R1 / RFU, ZRANB3 / Fold change vs veh, ZRANB3 / RFU, CUL4A / Fold change vs veh, CUL4A / RFU, CCNY / Fold change vs veh, CCNY / RFU, UFL1 / Fold change vs veh, UFL1 / RFU, COG3 / Fold change vs veh, COG3 / RFU, DIAPH2 / Fold change vs veh, DIAPH2 / RFU, SKA2 / Fold change vs veh, SKA2 / RFU, AFF3 / Fold change vs veh, AFF3 / RFU, LMF1 / Fold change vs veh, LMF1 / RFU, IPO11 / Fold change vs veh, IPO11 / RFU, DFFB / Fold change vs veh, DFFB / RFU, FOXP1 / Fold change vs veh, FOXP1 / RFU, CARD8 / Fold change vs veh, CARD8 / RFU, STRN3 / Fold change vs veh, STRN3 / RFU, ADK / Fold change vs veh, ADK / RFU, RASSF2 / Fold change vs veh, RASSF2 / RFU, WIPF1 / Fold change vs veh, WIPF1 / RFU, LARP1B / Fold change vs veh, LARP1B / RFU, RASA1 / Fold change vs veh, RASA1 / RFU, RB1 / Fold change vs veh, RB1 / RFU, PPFIA1 / Fold change vs veh, PPFIA1 / RFU, MAT2A / Fold change vs veh, MAT2A / RFU, CCT5 / Fold change vs veh, CCT5 / RFU, WDR92 / Fold change vs veh, WDR92 / RFU, CUX1 / Fold change vs veh, CUX1 / RFU, TTC7A / Fold change vs veh, TTC7A / RFU, TMEM135 / Fold change vs veh, TMEM135 / RFU, DEPTOR / Fold change vs veh, DEPTOR / RFU, CPM / Fold change vs veh, CPM / RFU, DNAJB6 / Fold change vs veh, DNAJB6 / RFU, CACNA2D3 / Fold change vs veh, CACNA2D3 / RFU, DTX4 / Fold change vs veh, DTX4 / RFU, TFCP2 / Fold change vs veh, TFCP2 / RFU, GMCL1 /// GMCL1P1 / Fold change vs veh, GMCL1 /// GMCL1P1 / RFU, AEBP2 / Fold change vs veh, AEBP2 / RFU, SNHG1 /// SNORD22 /// SNORD25 /// SNORD26 /// SNORD27 /// SNORD28 /// SNORD29 /// SNORD31 / Fold change vs veh, SNHG1 /// SNORD22 /// SNORD25 /// SNORD26 /// SNORD27 /// SNORD28 /// SNORD29 /// SNORD31 / Fold change (Aza/veh), C12orf56 (ProbeSet 11735607_a_at) / Fold change (ACY-1035/veh), C12orf56 (ProbeSet 11735607_a_at) / Fold change (Aza/veh), FGFR1OP (ProbeSet 11751329_s_at) / Fold change (ACY-1035/veh), FGFR1OP (ProbeSet 11751329_s_at) / Fold change (Aza/veh), VPS36 (ProbeSet 11739960_a_at) / Fold change (ACY-1035/veh), VPS36 (ProbeSet 11739960_a_at) / RFU SYPL1 (11715823_x_at) / Fold change /veh SYPL1 (11715823_x_at) / RFU IGFBP7 (11715501_s_at) / Fold change /veh IGFBP7 (11715501_s_at) / RFU REEP3 (11722064_at) / Fold change /veh REEP3 (11722064_at) / RFU IGLL1 (11728026_x_at) / Fold change /veh IGLL1 (11728026_x_at): dose or concentration left out as unconfirmed. The following applies: MV-4-11 cells, 48 hours.

With `Nc1ccc(-c2cccs2)cc1NC(=O)c1ccc2c(c1)cc(C1CC1)n2CCN1CCOCC1` [ACY-1035], the “Fold change /veh PRB3 (11715151_x_at)” value was 0.95.

Source of the values: PMC5218480 (PLoS ONE, 2017).
